The values that follow come from patent US20240158446A1, “CYCLIC COMPOUND HAVING SELECTIVE INHIBITORY ACTION ON KRAS OVER HRAS AND NRAS” (CHUGAI SEIYAKU KABUSHIKI KAISHA, priority 2021, published 2024).

Molecules are shown by their SMILES. pKd: −log10 of the molar value. Like-named read-outs stand apart in the source and are kept apart here. Where a SMILES comes first, the peptide text is derived from it. Bridges are numbered along the chain shown (N, C = ends). [ ]: non-standard residue; d: D form. The star is where a group is joined. hPhe(3,5-F2-4-CF3) = N[C@@H](CCc1cc(F)c(C(F)(F)F)c(F)c1)C(=O)O; hPhe(3-Cl-4-CF3) = N[C@@H](CCc1ccc(C(F)(F)F)c(Cl)c1)C(=O)O; NPrPhe(4-CF3) = CCCN[C@@H](Cc1ccc(C(F)(F)F)cc1)C(=O)O; NMeGly(cPent) = CN[C@H](C(=O)O)C1CCCC1; NMeD = CN[C@@H](CC(=O)O)C(=O)O; NMeL = CN[C@@H](CC(C)C)C(=O)O; αMeV = CC(C)[C@](C)(N)C(=O)O; Morpholide = C1CN(*)CCO1; NMeA = CN[C@@H](C)C(=O)O; Aze = O=C(O)[C@@H]1CCN1; Ac3c = NC1(C(=O)O)CC1; Sar = CNCC(=O)O

The target of assay [1] is GDP-bound KRAS wild-type protein (Homo sapiens, UniProt P01116). Briefly: Binding to KRAS by surface plasmon resonance (SPR), Single Cycle Kinetics. Conditions: GDP-bound KRAS wild-type protein, read-out: KRAS KD.
Sequence of GDP-bound KRAS wild-type protein (P01116 whole entry): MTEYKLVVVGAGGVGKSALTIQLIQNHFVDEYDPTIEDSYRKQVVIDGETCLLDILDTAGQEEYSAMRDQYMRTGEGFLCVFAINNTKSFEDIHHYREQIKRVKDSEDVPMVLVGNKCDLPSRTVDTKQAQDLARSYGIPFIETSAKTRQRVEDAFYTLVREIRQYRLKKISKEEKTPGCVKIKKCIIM
In assay [2] the target is GDP-bound HRAS wild-type protein (Homo sapiens, UniProt P01112). Briefly: Binding to HRAS by surface plasmon resonance (SPR), Single Cycle Kinetics. The settings on record: for HRAS/KRAS (ratio of KD value for HRAS to KD value for KRAS) / HRAS/KRAS (ratio of KD value with respect to HRAS to KD value with respect to KRAS): SPR, GDP-bound HRAS wild-type protein vs GDP-bound KRAS wild-type protein; for HRAS/KRAS (ratio of KD value with respect to GDP-bound HRAS wild-type protein to KD value with respect to KRAS): SPR KD ratio HRAS/KRAS, class symbols. On the technique in general: Surface plasmon resonance follows binding to a sensor surface in real time, without labels.
Sequence of GDP-bound HRAS wild-type protein (P01112 whole entry): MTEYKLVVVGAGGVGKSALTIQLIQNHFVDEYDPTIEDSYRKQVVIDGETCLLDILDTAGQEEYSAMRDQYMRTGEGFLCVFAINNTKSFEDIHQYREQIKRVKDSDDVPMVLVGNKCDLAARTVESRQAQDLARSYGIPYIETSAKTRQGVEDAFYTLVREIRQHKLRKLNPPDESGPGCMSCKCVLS

Assay [3] has as its target GDP-bound NRAS wild-type protein (Homo sapiens, UniProt P01111). The experiment in a line: Binding to NRAS by surface plasmon resonance (SPR), Single Cycle Kinetics. Conditions: for NRAS/KRAS (ratio of KD value for NRAS to KD value for KRAS) / NRAS/KRAS (ratio of KD value with respect to NRAS to KD value with respect to KRAS): SPR, GDP-bound NRAS wild-type protein vs GDP-bound KRAS wild-type protein; for NRAS/KRAS (ratio of KD value with respect to GDP-bound NRAS wild-type protein to KD value with respect to KRAS): SPR KD ratio NRAS/KRAS, class symbols.

Where [4] appears, read: SPR Single Cycle Kinetics, 1:1 binding model.

Sequence of GDP-bound NRAS wild-type protein (P01111 whole entry): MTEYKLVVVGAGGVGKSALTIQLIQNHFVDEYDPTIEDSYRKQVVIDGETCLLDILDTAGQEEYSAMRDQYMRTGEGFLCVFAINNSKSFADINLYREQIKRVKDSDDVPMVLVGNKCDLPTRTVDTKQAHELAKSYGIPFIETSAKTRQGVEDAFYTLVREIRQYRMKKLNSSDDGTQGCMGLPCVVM

What is called pKd is −log10 of the Kd, conventionally taken in molar units. As for `CCO[C@@H]1C[C@H]2C(=O)NC3(CCC3)C(=O)N(C)[C@@H](C3CCCC3)C(=O)N(CCC3CCCC3)[C@H](C(=O)N(C)C)CC(=O)N(C)[C@@H](CC)C(=O)N[C@@H]([C@@H](C)CC)C(=O)N(C)CC(=O)N(C)[C@H]3C/C=C\CCN(C3=O)[C@@H](Cc3ccc(C(F)(F)F)cc3)C(=O)N(C)CC(=O)N[C@@H](CCc3cc(F)c(C(F)(F)F)c(F)c3)C(=O)N2C1` [PP0982], the pKd in assay [1] (SPR, Single Cycle Kinetics) was 9.00. Also, the “HRAS/KRAS (ratio of KD value for HRAS to KD value for KRAS)” value in assay [2] is “A (a compound having 10 or more and less than 20 is denoted as A)”. For the same molecule, the “NRAS/KRAS (ratio of KD value for NRAS to KD value for KRAS)” value in assay [3] is “AA (a compound having 20 or more is denoted as AA)”.

Turning to `CCCN1C(=O)CN(C)C(=O)CN(C)C(=O)[C@H]([C@@H](C)CC)NC(=O)[C@H](CC(C)C)N(C)C(=O)C[C@@H](C(=O)N(C)C)N(C)C(=O)[C@H](C2CCCC2)N(C)C(=O)[C@](C)(C(C)C)NC(=O)[C@@H]2CCCN2C(=O)[C@H](CCc2cc(F)c(C(F)(F)F)c(F)c2)NC(=O)CN(C)C(=O)[C@@H]1Cc1ccc(C(F)(F)F)cc1` [PP0735] ([NMeL]I[Sar][Sar][NPrPhe(4-CF3)][Sar][hPhe(3,5-F2-4-CF3)]P[αMeV][NMeGly(cPent)][NMeD]-NMe2; lactam N-11), the pKd in assay [1] (setting [4]) is 9.57. Further, in assay [2], the “HRAS/KRAS (ratio of KD value with respect to HRAS to KD value with respect to KRAS)” value is “C (A compound having a KD ratio of 0.1 or more and less than 3 is denoted as C)”. Also, the “NRAS/KRAS (ratio of KD value with respect to NRAS to KD value with respect to KRAS)” value in assay [3] is “B (a compound having 3 or more and less than 10 is denoted as B)”.

With `CCC[C@H]1C(=O)N[C@@H]([C@@H](C)CC)C(=O)N2CCC[C@H]2C(=O)N(C)[C@H]2C/C=C\CCN(C2=O)[C@@H](CC2CCC(F)(F)CC2)C(=O)N(C)CC(=O)N[C@@H](CCc2ccc(C(F)(F)F)c(OC)c2)C(=O)N2C[C@H](OCC)C[C@H]2C(=O)N(C)C2(CCC2)C(=O)N(C)[C@@H](C(CC)CC)C(=O)N(C)[C@H](C(=O)N(C)C)CC(=O)N1C` [PP2353], the pKd in assay [1] (SPR, Single Cycle Kinetics) is 8.39. Also, in assay [2], the “HRAS/KRAS (ratio of KD value for HRAS to KD value for KRAS)” value was “A (a compound having 10 or more and less than 20 is denoted as A)”. Besides, in assay [3], the “NRAS/KRAS (ratio of KD value for NRAS to KD value for KRAS)” value is “A (a compound having 10 or more and less than 20 is denoted as A)”.

For the molecule `CCO[C@@H]1C[C@H]2C(=O)NC3(CC(C)(C)C3)C(=O)N(C)[C@@H](C3CCCC3)C(=O)N(C)[C@H](C(=O)N(C)CC)CC(=O)N(C)[C@@H](CC(C)C)C(=O)N[C@@H]([C@@H](C)CC)C(=O)N(C)CC(=O)N(C)[C@H]3C/C=C\CCN(C3=O)[C@@H](Cc3ccc(C(F)F)cc3)C(=O)N(C)CC(=O)N[C@@H](CCc3ccc(C(F)(F)F)c(OC)c3)C(=O)N2C1` [PP2828], in assay [1] (setting [4]), the pKd is 9.96. Further, the “HRAS/KRAS (ratio of KD value with respect to GDP-bound HRAS wild-type protein to KD value with respect to KRAS)” value in assay [2] is “A (a compound having 10 or more and less than 20 is denoted as A)”. In assay [3], the “NRAS/KRAS (ratio of KD value with respect to GDP-bound NRAS wild-type protein to KD value with respect to KRAS)” value is “A (a compound having 10 or more and less than 20 is denoted as A)”.

As to `CCO[C@@H]1C[C@H]2C(=O)NC3(CC(C)(C)C3)C(=O)N(C)[C@@H](C3CCCC3)C(=O)N(C)[C@H](C(=O)N(C)C)CC(=O)N(C)[C@@H](CC3CC3)C(=O)N[C@@H]([C@@H](C)CC)C(=O)N(C)CC(=O)N(C)[C@H]3C/C=C\CCN(C3=O)[C@@H](Cc3ccc(C(F)(F)F)cc3)C(=O)N(C)CC(=O)N[C@@H](CCc3ccc(C(F)(F)F)c(OC)c3)C(=O)N2C1` [PP1563], the pKd in assay [1] (SPR, Single Cycle Kinetics, 1:1 binding model) is 10.32. The “HRAS/KRAS (ratio of KD value for HRAS to KD value for KRAS)” value in assay [2] (KD ratio class) was “A (a compound having 10 or more and less than 20 is denoted as A)”. The “NRAS/KRAS (ratio of KD value for NRAS to KD value for KRAS)” value in assay [3] (KD ratio class) was “A (a compound having 10 or more and less than 20 is denoted as A)”.

For `CCC[C@H]1C(=O)N[C@@H]([C@@H](C)CC)C(=O)N(C)CC(=O)N(C)[C@H]2C/C=C\CCN(C2=O)[C@@H](Cc2ccc(C)cc2)C(=O)N(C)CC(=O)N[C@@H](CCc2ccc(C(F)(F)F)c(OC)c2)C(=O)N2C[C@H](OCC)C[C@H]2C(=O)NC2(CC(C)(C)C2)C(=O)N(C)[C@@H](C(CC)CC)C(=O)N(C)[C@H](C(=O)N(C)C)CC(=O)N1C` [PP2068], the negative-log Kd (pKd) in assay [1] (SPR, Single Cycle Kinetics) is 9.44. The “HRAS/KRAS (ratio of KD value for HRAS to KD value for KRAS)” value in assay [2] was “B (a compound having 3 or more and less than 10 is denoted as B)”. Moreover, the “NRAS/KRAS (ratio of KD value for NRAS to KD value for KRAS)” value in assay [3] was “A (a compound having 10 or more and less than 20 is denoted as A)”.

For `CCCN1C(=O)[C@@H]2CCN2C(=O)[C@H](C)N(C)C(=O)[C@H]([C@@H](C)CC)NC(=O)[C@H](CC(C)C)N(C)C(=O)C[C@@H](C(=O)N2CCOCC2)N(C)C(=O)[C@H](C2CCCC2)N(C)C(=O)C2(CC2)NC(=O)[C@@H]2CCCN2C(=O)[C@H](CCc2ccc(C(F)(F)F)c(Cl)c2)NC(=O)CN(C)C(=O)[C@@H]1Cc1ccc(C(F)(F)F)cc1` [PP0224] ([NMeL]I[NMeA][Aze][NPrPhe(4-CF3)][Sar][hPhe(3-Cl-4-CF3)]P[Ac3c][NMeGly(cPent)][NMeD]-Morpholide; lactam N-11), in assay [1] (setting [4]), the pKd is 9.66. Also, the “HRAS/KRAS (ratio of KD value for HRAS to KD value for KRAS)” value in assay [2] is “B (a compound having 3 or more and less than 10 is denoted as B)”. Besides, the “NRAS/KRAS (ratio of KD value for NRAS to KD value for KRAS)” value in assay [3] is “C (A compound having a KD ratio of 0.1 or more and less than 3 is denoted as C)”.

Turning to `CCO[C@@H]1C[C@H]2C(=O)NC3(CC(F)(F)C3)C(=O)N(C)[C@@H](C3CCCC3)C(=O)N(C)[C@H](C(=O)N3CCOCC3)CC(=O)N(C)[C@@H](CC(C)C)C(=O)N[C@@H]([C@@H](C)CC)C(=O)N(C)CC(=O)N(C)[C@H]3CC=C(C)CN(C3=O)[C@@H](Cc3ccc(C(F)(F)F)cc3)C(=O)N(C)CC(=O)N[C@@H](CCc3cc(F)c(C(F)(F)F)c(F)c3)C(=O)N2C1` [PP0828], in assay [1] (SPR, Single Cycle Kinetics), the pKd was 9.77. The “HRAS/KRAS (ratio of KD value for HRAS to KD value for KRAS)” value in assay [2] is “C (A compound having a KD ratio of 0.1 or more and less than 3 is denoted as C)”. Also, the “NRAS/KRAS (ratio of KD value for NRAS to KD value for KRAS)” value in assay [3] was “C (A compound having a KD ratio of 0.1 or more and less than 3 is denoted as C)”.

As to `CCC[C@H]1C(=O)N[C@@H]([C@@H](C)CC)C(=O)N(C)CC(=O)N(C)[C@H]2C/C=C\CCN(C2=O)[C@@H](Cc2ccc(C)cc2)C(=O)N(C)CC(=O)N[C@@H](CCc2ccc(Cl)c(Cl)c2)C(=O)N2CCCCC[C@H]2C(=O)NC2(CC(C)(C)C2)C(=O)N(C)[C@@H](C(CC)CC)C(=O)N(C)[C@H](C(=O)N(C)C)CC(=O)N1C` [PP2962], in assay [1] (setting [4]), the pKd was 8.92. Also, in assay [2], the “HRAS/KRAS (ratio of KD value with respect to GDP-bound HRAS wild-type protein to KD value with respect to KRAS)” value is “A (a compound having 10 or more and less than 20 is denoted as A)”. Also, the “NRAS/KRAS (ratio of KD value with respect to GDP-bound NRAS wild-type protein to KD value with respect to KRAS)” value in assay [3] was “AA (a compound having 20 or more is denoted as AA)”.

`CC[C@H](C)[C@@H]1NC(=O)[C@H](CC(C)C)N(C)C(=O)C[C@@H](C(=O)N2CCOCC2)N(C)C(=O)[C@H](C2CCCC2)N(C)C(=O)C2(CCCC2)NC(=O)[C@@H]2CCCN2C(=O)[C@H](CCc2ccc(C(F)(F)F)c(Cl)c2)NC(=O)CN(C)C(=O)[C@H](Cc2ccc(OC)cc2)N2CCCC[C@@H](C2=O)N(C)C(=O)CN(C)C1=O` [PP0534]: the pKd in assay [1] (setting [4]) was 9.80. In addition, in assay [2], the “HRAS/KRAS (ratio of KD value with respect to HRAS to KD value with respect to KRAS)” value is “B (a compound having 3 or more and less than 10 is denoted as B)”. Also, in assay [3], the “NRAS/KRAS (ratio of KD value with respect to NRAS to KD value with respect to KRAS)” value is “B (a compound having 3 or more and less than 10 is denoted as B)”.
